# Measured values as given in ChEMBL document CHEMBL1122523, “2-[[[2-(2,6-Dimethoxyphenoxy)ethyl]amino]-methyl] -1,4-benzoxathian: a new antagonist with high potency and selectivity toward alpha 1-adrenoreceptors” (J Med Chem, 1984).
# Legend:
# [1] = biological target: T1, Adrenergic receptor alpha-2 (Rattus norvegicus, UniProt P22086+P19328+P22909); assay: Alpha-2 adrenergic receptor antagonist activity against agonist (clonidine) in isolated rat vas deferens; assay type: functional, tissue-based
# T1 sequence (P22086 whole entry): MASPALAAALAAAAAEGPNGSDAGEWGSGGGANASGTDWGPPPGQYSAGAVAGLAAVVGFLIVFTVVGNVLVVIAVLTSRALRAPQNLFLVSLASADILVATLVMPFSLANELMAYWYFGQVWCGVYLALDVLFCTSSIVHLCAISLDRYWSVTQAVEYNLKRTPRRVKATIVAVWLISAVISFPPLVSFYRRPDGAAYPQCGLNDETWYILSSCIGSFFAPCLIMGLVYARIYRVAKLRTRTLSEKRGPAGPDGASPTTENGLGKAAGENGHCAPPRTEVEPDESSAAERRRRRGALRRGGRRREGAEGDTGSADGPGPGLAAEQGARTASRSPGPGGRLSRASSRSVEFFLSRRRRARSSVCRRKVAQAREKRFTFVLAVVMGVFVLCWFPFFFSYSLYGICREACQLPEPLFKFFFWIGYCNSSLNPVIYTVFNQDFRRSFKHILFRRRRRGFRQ
# T1 sequence (P19328 whole entry): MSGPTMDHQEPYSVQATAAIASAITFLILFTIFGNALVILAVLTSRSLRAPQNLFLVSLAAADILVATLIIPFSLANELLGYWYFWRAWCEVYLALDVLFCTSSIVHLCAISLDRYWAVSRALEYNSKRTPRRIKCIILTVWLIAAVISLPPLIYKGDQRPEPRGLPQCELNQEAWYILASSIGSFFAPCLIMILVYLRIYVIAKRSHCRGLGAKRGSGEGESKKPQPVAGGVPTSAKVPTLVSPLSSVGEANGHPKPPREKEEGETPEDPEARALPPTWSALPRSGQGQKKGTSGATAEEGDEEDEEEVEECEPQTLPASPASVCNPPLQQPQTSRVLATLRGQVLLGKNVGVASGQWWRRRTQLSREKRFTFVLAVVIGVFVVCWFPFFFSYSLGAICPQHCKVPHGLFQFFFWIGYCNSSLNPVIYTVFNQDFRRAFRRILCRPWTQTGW
# T1 sequence (P22909 whole entry): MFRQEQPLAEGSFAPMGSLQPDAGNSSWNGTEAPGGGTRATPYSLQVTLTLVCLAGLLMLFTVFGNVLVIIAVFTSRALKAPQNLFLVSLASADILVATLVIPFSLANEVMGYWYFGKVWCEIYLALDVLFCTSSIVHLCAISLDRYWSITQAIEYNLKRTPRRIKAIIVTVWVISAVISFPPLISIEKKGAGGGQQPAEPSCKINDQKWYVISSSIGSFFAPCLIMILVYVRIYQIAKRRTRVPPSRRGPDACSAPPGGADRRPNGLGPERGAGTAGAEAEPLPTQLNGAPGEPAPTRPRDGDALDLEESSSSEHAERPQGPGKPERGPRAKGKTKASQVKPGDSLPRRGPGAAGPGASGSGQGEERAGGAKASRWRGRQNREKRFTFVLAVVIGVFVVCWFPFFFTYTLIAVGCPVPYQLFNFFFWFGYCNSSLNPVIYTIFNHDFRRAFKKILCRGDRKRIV
# [2] = biological target: T2, Adrenergic receptor alpha-1 (Rattus norvegicus, UniProt P15823+P23944+P43140); assay: Alpha-1 adrenergic receptor antagonist activity against agonist (norepinephrine) in isolated rat vas deferens; assay type: functional, tissue-based
# T2 sequence (P15823 whole entry): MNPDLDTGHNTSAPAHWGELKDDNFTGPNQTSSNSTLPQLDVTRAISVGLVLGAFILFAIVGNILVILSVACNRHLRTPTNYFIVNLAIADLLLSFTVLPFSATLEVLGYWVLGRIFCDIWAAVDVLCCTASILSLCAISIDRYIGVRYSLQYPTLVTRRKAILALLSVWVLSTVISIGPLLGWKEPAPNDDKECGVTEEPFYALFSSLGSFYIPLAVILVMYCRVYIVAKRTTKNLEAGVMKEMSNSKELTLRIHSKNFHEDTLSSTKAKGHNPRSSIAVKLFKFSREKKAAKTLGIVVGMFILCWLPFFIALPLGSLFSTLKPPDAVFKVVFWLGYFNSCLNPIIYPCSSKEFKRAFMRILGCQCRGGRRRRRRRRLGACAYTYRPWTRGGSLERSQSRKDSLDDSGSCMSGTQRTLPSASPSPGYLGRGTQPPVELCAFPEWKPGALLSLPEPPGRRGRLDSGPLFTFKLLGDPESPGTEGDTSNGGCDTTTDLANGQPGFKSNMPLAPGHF
# T2 sequence (P23944 whole entry): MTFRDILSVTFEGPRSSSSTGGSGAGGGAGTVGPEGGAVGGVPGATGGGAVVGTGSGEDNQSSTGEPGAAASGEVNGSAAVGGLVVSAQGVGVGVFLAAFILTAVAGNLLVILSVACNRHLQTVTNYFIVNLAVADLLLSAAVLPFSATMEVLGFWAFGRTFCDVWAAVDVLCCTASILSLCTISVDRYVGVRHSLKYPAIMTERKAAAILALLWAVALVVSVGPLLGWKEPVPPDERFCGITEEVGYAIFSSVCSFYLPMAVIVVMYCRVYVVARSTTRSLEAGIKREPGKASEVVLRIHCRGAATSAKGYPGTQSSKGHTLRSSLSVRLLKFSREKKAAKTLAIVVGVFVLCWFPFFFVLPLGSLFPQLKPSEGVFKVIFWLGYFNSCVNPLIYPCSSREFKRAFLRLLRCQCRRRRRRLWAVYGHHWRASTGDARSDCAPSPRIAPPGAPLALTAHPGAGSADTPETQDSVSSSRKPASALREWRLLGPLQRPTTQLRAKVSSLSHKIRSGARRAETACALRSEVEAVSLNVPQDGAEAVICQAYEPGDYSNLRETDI
# T2 sequence (P43140 whole entry): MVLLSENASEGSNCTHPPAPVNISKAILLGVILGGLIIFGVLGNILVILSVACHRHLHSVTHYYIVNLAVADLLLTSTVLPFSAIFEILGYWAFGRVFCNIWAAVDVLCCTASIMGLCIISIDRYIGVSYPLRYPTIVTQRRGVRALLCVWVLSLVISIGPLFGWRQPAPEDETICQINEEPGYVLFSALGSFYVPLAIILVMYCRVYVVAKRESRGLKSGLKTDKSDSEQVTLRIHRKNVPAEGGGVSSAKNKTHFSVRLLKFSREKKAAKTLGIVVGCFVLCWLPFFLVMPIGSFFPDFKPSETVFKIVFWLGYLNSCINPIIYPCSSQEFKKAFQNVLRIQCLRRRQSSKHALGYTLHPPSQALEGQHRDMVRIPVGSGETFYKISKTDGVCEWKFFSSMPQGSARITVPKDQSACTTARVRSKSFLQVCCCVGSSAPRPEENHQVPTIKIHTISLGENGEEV
pA2 [1],pA2 [2],Compound
6.29,8.83,"COc1cccc(OC)c1OCCNCC1COc2ccccc2O1.Cl (centres undefined) [2- (2,6-DIMETHOXYPHENOXYETHYL)AMINOMETHYL-1,4-BENZODIOXANE HYDROCHLORIDE (WB 4101)]"
6.26,9.26,COc1cccc(OC)c1OCCNCC1CSc2ccccc2O1.Cl (centres undefined) [BENOXATHIAN HYDROCHLORIDE]
